{
  "source": "patent US20110281852A1",
  "about": "(priority 2010, published 2011)",
  "key": {"[1]": {"test_system": "SERT promoter (5-HTTLPR alleles)", "experiment": "DRL (dual luciferase reporter) assay, SERT promoter activity of 5-HTTLPR alleles in RN46A cells", "format": "cell-based", "conditions": "2 μM evodiamine", "from_the_text": "The PCR reaction to amplify the 5-HTTLPR alleles for sequencing and creation of reporter constructs contained primers different than those used for the genotyping experiment.\nThe primer sequences were described previously and are as follows: Forward primer 5′-[…]-3′ (SEQ ID NO:25) and Reverse primer 5′-[…]-3′ (SEQ ID NO:26) (Hu et al., Am J Hum Genet (2006) 78(5):815-826). The PCR products of the six 5-HTTLPR alleles (S, LG, LA, XS, XL-17, and XL-18) were subcloned into the TOPO TA cloning vector pCR2.1-TOPO (Invitrogen) and transformed to One Shot TOP10 competent E. coli cells according to the manufacturer's instructions. In the case of individuals heterozygous for 5-HTTLPR, resulting transformants were screened for the presence of the correct insert using the restriction enzyme EcoR I.\nThe resulting constructs, created and sequenced, in the pCR2.1-TOPO vector (S, LG, LA, XS, XL-17, and XL-18 alleles) were subcloned to the luciferase reporter vector pGL4.10 [luc2] (Promega) using standard molecular techniques. Additionally, each allele was cloned into pGL4.10 [luc2] in the backwards orientation to ensure that transcriptional effects were the result of consensus promoter sequences. […] The co-transfection with the 5-HTTLPR pGL4.10 constructs (firefly luciferase) and the pRL-SV40 vector (renilla luciferase) to the RN46A raphe-derived cell line using Lipofectamine 2000 (Invitrogen) was described previously. Expression was measured using the Dual-Luciferase Reporter Assay System (Promega) 24 h after transfection with passive lysis buffer.\nRelative light units (RLU) for both the firefly and renilla luciferase was measured using a 20/20^n Luminometer (Turner Biosystems, Sunnyvale Calif. 94085) and the ratio between the firefly RLU to renilla RLU in each sample was determined. The values were all normalized to the (S) allele."}, "in vitro": {"experiment": "in vitro", "conditions": "mouse, 3T3-L1 cells during differentiation", "protocol": "Cell culture: 3T3-L1 cells were cultured at 37° C. in a humidified 5% CO2 atmosphere and grown in a culture medium (CM) (DMEM supplemented with 10% FBS, 100 units/ml penicillin and […] streptomycin). Differentiation conditions for 3T3-L1 were as described (Dowell et al, 2000). Briefly, confluent 3T3-L1 cells were maintained in culture medium for 48 hrs (day 0). Cells were placed in Differentiation Medium 1 (DM1) (CM with 167 nM insulin, 520 μM isobutylmethylxanthine (IBMX), and 1 μM dexamethasone) for a further 48 hrs (Day 2). The medium was then changed to differentiation medium 2 (DM2) (CM with 167 nM insulin) for a further 48 hrs (Day 4). The DM2 was then changed every 48 hrs for an additional 4 days (Day 8).\nCulture medium was removed at 24, 48 and 72 hrs and MTT (0.5 mg/ml in pure DMEM, 50 μl/well) was added."}, "[2]": {"experiment": "Food intake, high-fat diet and normal diet mice", "format": "in vivo, mouse", "from_the_text": "(§1) Six mice per subgroup were obtained finally."}, "Adiponectin": {"test_system": "Adiponectin", "experiment": "Real-time RT-PCR, Adiponectin mRNA in 3T3-L1", "format": "cell-based, mouse", "conditions": "8 days", "from_the_text": "(§2) Realtime RT-PCR: Real-time reverse transcriptase polymerase chain reaction (RT-PCR) analysis was used to measure mRNA expression of genes SREBP-1, PPARγ, C/EBPα, low density lipoprotein receptor (LDLR), Adiponectin, and fatty acid synthase (FAS) under the control of β-actin. Briefly, total RNA was isolated from 3T3-L1 cells following treatment for 8 days with Trizol reagent (Invitrogen, Carlsbad, Calif., USA) according to the manufacturer's instruction. RNA was quantified using absorption of light at 260 nm, and sample purity was checked by OD 260 nm/280 nm. 0.8 μg of total RNA from each sample was used for reverse transcription reaction using the TaqMan Reverse Transcription Reagents (Applied Biosystems, Foster City, Calif., USA) according to the manufacturers' instructions. PCR was done using the SYBR green Master Mix (Applied Biosystems, Foster City, Calif., USA) according to the manufacturers' instructions. The temperature cycling conditions of amplification were as follows: an initial step of denaturation at 95° C. for 10 min, 40 cycles of denaturation at 95° C. for 30 s, annealing at 55° C. for 30 s, and elongation at 72° C. for 30 s. Realtime RT-PCR was performed using Mx3000P Realtime Thermocyclers (Statagene, La Jolla, Calif., USA). The relative mRNA levels of these genes were calculated by 2-delta delta CT method and normalized with control groups."}, "[3]": {"experiment": "Serum total cholesterol assay in mice", "format": "in vivo, mouse", "protocol": "as §1\nSerum glucose, triglyceride, cholesterol assay: Blood samples from each mouse were collected and serum was separated by centrifugation for the measurement of levels of glucose, triglyceride and total cholesterol. Serum glucose concentrations were analyzed using Glucose (HK) Assay Kit (Sigma-aldrich, Saint Louis, Mo., USA). Serum triglyceride concentrations were analyzed using Serum Triglyceride Determination Kit (Sigma-aldrich, Saint Louis, Mo., USA). Serum cholesterol concentrations were analyzed using Amplex® Red Cholesterol Assay Kit (Invitrogen, Carlsbad, Calif., USA). All experimental assays were done according to the manufacturer's instructions."}, "PPARγ": {"test_system": "PPARγ", "experiment": "Real-time RT-PCR, PPARγ mRNA in 3T3-L1", "format": "cell-based, mouse", "conditions": "8 days", "from_the_text": "as §2"}, "[4]": {"conditions": "FD mice, 1.5 mg/kg/day, 36 days"}, "[5]": {"conditions": "8 μM berberine + 15 μM clozapine"}, "[6]": {"conditions": "8 μM berberine + 50 μM risperidone"}},
  "data": [
    {"compound": "evodiamine", "values": [
      {"measurement": "increase of SERT promoter activity vs vehicle", "setting": "[1]; LA allele", "result": 171.5, "unit": "%"},
      {"measurement": "increase of SERT promoter activity vs vehicle", "setting": "[1]; LG allele", "result": 288.5, "unit": "%"},
      {"measurement": "increase of SERT promoter activity vs vehicle", "setting": "[1]; S allele", "result": 206.9, "unit": "%"},
      {"measurement": "increase of SERT promoter activity vs vehicle", "setting": "[1]; XL17 allele", "result": 165.6, "unit": "%"},
      {"measurement": "increase of SERT promoter activity vs vehicle", "setting": "[1]; XL18 allele", "result": 96.3, "unit": "%"},
      {"measurement": "increase of SERT promoter activity vs vehicle", "setting": "[1]; XS allele", "result": 74.3, "unit": "%"}
    ]},
    {"compound": "COc1ccc2cc3[n+](cc2c1OC)CCc1cc2c(cc1-3)OCO2.[Cl-]", "note": "[berberine, Berberine (Chloride Form)]", "values": [
      {"measurement": "cytotoxicity at 2 days, 8 μM", "setting": "in vitro", "result": 15.6, "unit": "%"},
      {"measurement": "cytotoxicity at 4 days, 8 μM", "setting": "in vitro", "result": 12.8, "unit": "%"},
      {"measurement": "cytotoxicity at 6 days, 8 μM", "setting": "in vitro", "result": 12.6, "unit": "%"},
      {"measurement": "cytotoxicity at 8 days, 8 μM", "setting": "in vitro", "result": 11.4, "unit": "%"},
      {"measurement": "food intake", "setting": "[2]; FD mice, 0.75 mg/kg/day, 36 days (control 3.5±0.4)", "result": "3.0±0.3", "unit": "g/mouse/day"},
      {"measurement": "food intake", "setting": "[2]; [4]", "result": "2.7±0.5", "unit": "g/mouse/day"},
      {"measurement": "food intake", "setting": "[2]; FD mice, 3 mg/kg/day, 36 days", "result": "2.5±0.2", "unit": "g/mouse/day"},
      {"measurement": "food intake", "setting": "[2]; ND mice, 3 mg/kg/day, 36 days (control 3.8±0.7)", "result": "3.3±0.5", "unit": "g/mouse/day"},
      {"measurement": "decrease of adiponectin mRNA expression vs clozapine treated group", "setting": "Adiponectin; [5]", "result": 96.3, "unit": "%"},
      {"measurement": "decrease of Adiponectin mRNA expression vs risperidone treated group", "setting": "Adiponectin; [6]", "result": 98.2, "unit": "%"},
      {"measurement": "reduction of serum total cholesterol level", "setting": "[3]; FD mice, 0.75 mg/kg/day", "result": 18.7, "unit": "%"},
      {"measurement": "serum total cholesterol level", "setting": "[3]; FD mice, 0.75 mg/kg/day, 36 days (control 152.4±15.2)", "result": "123.9 ± 16.5", "unit": "mg/dL"},
      {"measurement": "reduction of serum total cholesterol level", "setting": "[3]; FD mice, 1.5 mg/kg/day", "result": 22.2, "unit": "%"},
      {"measurement": "serum total cholesterol level", "setting": "[3]; [4]", "result": "118.5 ± 14.7", "unit": "mg/dL"},
      {"measurement": "reduction of serum total cholesterol level", "setting": "[3]; FD mice, 3 mg/kg/day", "result": 28, "unit": "%"},
      {"measurement": "serum total cholesterol level", "setting": "[3]; FD mice, 3 mg/kg/day, 36 days", "result": "109.8 ± 22.7", "unit": "mg/dL"},
      {"measurement": "serum total cholesterol level", "setting": "[3]; ND mice, 3 mg/kg/day (control 96.5±16.5)", "result": "97.4 ± 18.3", "unit": "mg/dL"},
      {"measurement": "decrease of PPARγ mRNA expression vs clozapine treated group", "setting": "PPARγ; [5]", "result": 87.7, "unit": "%"},
      {"measurement": "decrease of PPARγ mRNA expression vs risperidone treated group", "setting": "PPARγ; [6]", "result": 93.1, "unit": "%"}
    ]}
  ]
}
